Measured values from ChEMBL document CHEMBL5126532, “Synthetic approaches and structural diversity of triazolylbutanols derived from voriconazole in the antifungal drug development” (Eur J Med Chem, 2022).
Values after ≈ are worked out from the molar mass of the structure shown. Each block holds one compound with its values, some of them ahead of it.

Key:
Assay type in all cases: functional
[1] = tested on: Cryptococcus neoformans; assay: Antifungal activity against Cryptococcus neoformans; conditions: Cryptococcus neoformans; read-out: MIC
[2] = tested on: Candida; assay: Antifungal activity against Candida spp.
[3] = tested on: Candida parapsilosis; assay: Antifungal activity against Candida parapsilosis; conditions: Lodderomyces parapsilosis
[4] = tested on: Candida albicans; assay: Antifungal activity against Candida albicans assessed as inhibition of fungal growth incubated for 20 hrs
[5] = tested on: Aspergillus sp.; assay: Antifungal activity against Aspergillus sp; conditions: Aspergillus sp.; read-out: MIC
[6] = tested on: Candida albicans; assay: Antifungal activity against Candida albicans
[7] = tested on: Aspergillus fumigatus; assay: Antifungal activity against Aspergillus fumigatus TIMM1728 assessed as inhibition of fungal growth incubated for 20 hrs
[8] = tested on: Aspergillus fumigatus; assay: In vivo antifungal activity against Aspergillus fumigatus infected in CDF1 mouse treated po 4 hrs after injection twice daily for 2 days measured on day 10; conditions: 48 h, time 2 day
[9] = tested on: Cryptococcus neoformans; assay: Antifungal activity against Cryptococcus neoformans TIMM1855 assessed as inhibition of fungal growth incubated for 68 hrs
[10] = tested on: Candida albicans; assay: In vivo antifungal activity against Candida albicans infected in CDF1 mouse treated po 4 hrs after injection twice daily for 2 days measured on day 10; conditions: 48 h, time 2 day
[11] = tested on: Candida albicans; assay: Antifungal activity against Candida albicans TIMM1850 assessed as inhibition of fungal growth incubated for 20 hrs
[12] = tested on: Cryptococcus neoformans; assay: Antifungal activity against Cryptococcus neoformans TIMM1740 assessed as inhibition of fungal growth incubated for 68 hrs
[13] = tested on: Aspergillus fumigatus; assay: Antifungal activity against Aspergillus fumigatus IFO6344 assessed as inhibition of fungal growth incubated for 20 hrs
[14] = tested on: Candida albicans; assay: Antifungal activity against Candida albicans TIMM1756 assessed as inhibition of fungal growth incubated for 20 hrs
[15] = tested on: Aspergillus flavus; assay: Antifungal activity against Aspergillus flavus SANK 18497 by 96-well microplate method
[16] = tested on: Candida albicans; assay: Antifungal activity against Candida albicans SANK 51486 by 96-well microplate method
[17] = tested on: Cryptococcus neoformans; assay: Antifungal activity against Cryptococcus neoformans TIMM 1855 by 96-well microplate method
[18] = tested on: Aspergillus fumigatus; assay: Antifungal activity against Aspergillus fumigatus SANK 10569 by 96-well microplate method
[19] = tested on: Aspergillus fumigatus; assay: Antifungal activity against Aspergillus fumigatus

SMILES: C[C@H](n1nnc(CCN2CCN(c3cccc(C(F)(F)F)c3)CC2)n1)[C@](O)(Cn1cncn1)c1ccc(F)cc1F
MIC [1]: 0.25 µg/mL (≈ 0.433 µM)
MIC [2]: 0.25 µg/mL (≈ 0.433 µM)

SMILES: C[C@@H](N1CCN(c2ccc(-n3cnn(Cc4cccc(C(F)(F)F)c4)c3=O)cn2)CC1)[C@](O)(Cn1cncn1)c1ccc(F)cc1F
MIC [3]: 4 µg/mL (≈ 6.1 µM)

SMILES: CC(C)CCC(=O)OC[n+]1cnn(C[C@](O)(c2ccc(F)cc2F)[C@@H](C)N2CCN(c3ccc(-n4cnnn4)cc3)C2=O)c1.[I-]
MIC [4]: 0.016 µg/mL

SMILES: C[C@@H](N1Cc2nc(-c3ccc(F)cc3)sc2C1=O)[C@](O)(Cn1cncn1)c1ccc(F)cc1F
MIC [1]: 0.0312 µg/mL (≈ 0.0643 µM)
MIC [2]: 0.0156 µg/mL (≈ 0.0321 µM)
MIC [5]: 4 µg/mL (≈ 8.24 µM)

SMILES: C[C@@H](N1CCN(c2ccc(-n3cnnn3)cc2)C1=O)[C@](O)(Cn1c[n+](COC(=O)OC2COCOC2)cn1)c1ccc(F)cc1F.[I-]
MIC [4]: 0.016 µg/mL

SMILES: C[C@@H](N1CCN(c2ccc(-n3cnn(Cc4cc(C(F)(F)F)cc(C(F)(F)F)c4)c3=O)nc2)CC1)[C@](O)(Cn1cncn1)c1ccc(F)cc1F
MIC [3]: 4 µg/mL (≈ 5.53 µM)

SMILES: CC(C)COC(=O)OC[n+]1cnn(C[C@](O)(c2ccc(F)cc2F)[C@@H](C)N2CCN(c3ccc(-n4cnnn4)cc3)C2=O)c1.[I-]
MIC [4]: 0.016 µg/mL

SMILES: C[C@@H](N1CCN(c2ccc(-n3cccn3)cc2)C1=O)[C@](O)(Cn1cncn1)c1ccc(F)cc1F
MIC [7]: 0.25 µg/mL (≈ 0.521 µM)
ED50 [8]: 4.4 mg/kg
MIC [9]: 0.016 µg/mL (≈ 0.0334 µM)
ED50 [10]: 2 mg/kg
MIC [11]: ≤ 0.001 µg/mL
MIC [12]: 0.016 µg/mL (≈ 0.0334 µM)
MIC [13]: 0.25 µg/mL (≈ 0.521 µM)
MIC [14]: ≤ 0.001 µg/mL

SMILES: C[C@@H](S[C@H]1CO[C@H](/C=C/C=C/c2ccc(C#N)cc2F)OC1)[C@](O)(Cn1cncn1)c1ccc(F)cc1
MIC [15]: ≤ 0.008 µg/mL
MIC [16]: ≤ 0.008 µg/mL
MIC [17]: ≤ 0.008 µg/mL
MIC [18]: ≤ 0.008 µg/mL

SMILES: C[C@@H](N1CCN(c2ccc(-n3cnnn3)cc2)C1=O)[C@](O)(Cn1c[n+](COC(=O)C(C)(C)C)cn1)c1ccc(F)cc1F.[I-]
MIC [4]: 0.016 µg/mL

SMILES: CC(C)n1ncn(-c2ccc(N3CCN([C@H](C)[C@](O)(Cn4cncn4)c4ccc(F)cc4F)CC3)cn2)c1=O
MIC [1]: 0.5 µg/mL (≈ 0.927 µM)
MIC [2]: 0.25 µg/mL (≈ 0.463 µM)
MIC [19]: 4 µg/mL (≈ 7.41 µM)
MIC [3]: 0.25 µg/mL (≈ 0.463 µM)

SMILES: C[C@@H](N1CCN(c2ccc(-n3cnn(Cc4cc(C(F)(F)F)cc(C(F)(F)F)c4)c3=O)cn2)CC1)[C@](O)(Cn1cncn1)c1ccc(F)cc1F
MIC [3]: 4 µg/mL (≈ 5.53 µM)

SMILES: CC(C)C(=O)OC[n+]1cnn(C[C@](O)(c2ccc(F)cc2F)[C@@H](C)N2CCN(c3ccc(-n4cnnn4)cc3)C2=O)c1.[I-]
MIC [4]: 0.016 µg/mL

SMILES: C[C@@H](N1CCN(c2ccc(-n3cnn(Cc4cc(C(F)(F)F)cc(C(F)(F)F)c4C(F)(F)F)c3=O)nc2)CC1)[C@](O)(Cn1cncn1)c1ccc(F)cc1F
MIC [3]: 4 µg/mL (≈ 5.05 µM)

SMILES: CC(C)Cn1ncn(-c2ccc(N3CCN([C@H](C)[C@](O)(Cn4cncn4)c4ccc(F)cc4F)CC3)nc2)c1=O
MIC [1]: 0.25 µg/mL (≈ 0.452 µM)
MIC [2]: 0.03 µg/mL (≈ 0.0542 µM)
MIC [19]: 4 µg/mL (≈ 7.23 µM)
MIC [3]: 0.25 µg/mL (≈ 0.452 µM)

SMILES: C[C@@H](N1CC(O)N(c2ccc(-n3cnnn3)cc2)C1=O)[C@](O)(Cn1cncn1)c1ccc(F)cc1F (stereo not given in full)
MIC [1]: > 16 µg/mL
MIC [2]: ≥ 4 µg/mL
MIC [5]: > 64 µg/mL

Further lines, results first:

MIC80 [6]: 0.0313 µg/mL (≈ 0.0677 µM)
SMILES: C[C@@H](OCc1cc(-c2cc(F)cc(F)c2)no1)[C@](O)(Cn1cncn1)c1ccc(F)cc1F

MIC80 [6]: 0.0313 µg/mL (≈ 0.0679 µM)
SMILES: C[C@@H](OCc1cc(-c2ccc(Cl)cc2)no1)[C@](O)(Cn1cncn1)c1ccc(F)cc1F

MIC80 [6]: 0.0313 µg/mL (≈ 0.0628 µM)
SMILES: C[C@@H](OCc1cc(-c2cc(F)c(F)c(F)c2F)no1)[C@](O)(Cn1cncn1)c1ccc(F)cc1F

MIC80 [6]: 0.0313 µg/mL (≈ 0.0711 µM)
SMILES: Cc1cccc(-c2cc(CO[C@H](C)[C@](O)(Cn3cncn3)c3ccc(F)cc3F)on2)c1

MIC80 [6]: 0.0313 µg/mL (≈ 0.0652 µM)
SMILES: C[C@@H](OCc1cc(-c2c(F)cc(F)cc2F)no1)[C@](O)(Cn1cncn1)c1ccc(F)cc1F

MIC80 [6]: 0.0313 µg/mL (≈ 0.0677 µM)
SMILES: C[C@@H](OCc1cc(-c2ccc(F)cc2F)no1)[C@](O)(Cn1cncn1)c1ccc(F)cc1F

MIC80 [6]: 0.0313 µg/mL (≈ 0.0677 µM)
SMILES: C[C@@H](OCc1cc(-c2cc(F)ccc2F)no1)[C@](O)(Cn1cncn1)c1ccc(F)cc1F

MIC80 [6]: 0.0313 µg/mL (≈ 0.0677 µM)
SMILES: C[C@@H](OCc1cc(-c2c(F)cccc2F)no1)[C@](O)(Cn1cncn1)c1ccc(F)cc1F

MIC80 [6]: 0.0313 µg/mL (≈ 0.0679 µM)
SMILES: C[C@@H](OCc1cc(-c2ccccc2Cl)no1)[C@](O)(Cn1cncn1)c1ccc(F)cc1F

MIC80 [6]: 0.0313 µg/mL (≈ 0.0677 µM)
SMILES: C[C@@H](OCc1cc(-c2cccc(F)c2F)no1)[C@](O)(Cn1cncn1)c1ccc(F)cc1F

MIC80 [6]: 0.0313 µg/mL (≈ 0.0677 µM)
SMILES: C[C@@H](OCc1cc(-c2ccc(F)c(F)c2)no1)[C@](O)(Cn1cncn1)c1ccc(F)cc1F

MIC80 [6]: 0.0313 µg/mL (≈ 0.0654 µM)
SMILES: C[C@@H](OCc1cc(-c2ccc(Cl)c(F)c2)no1)[C@](O)(Cn1cncn1)c1ccc(F)cc1F

MIC80 [6]: 0.0313 µg/mL (≈ 0.0613 µM)
SMILES: C[C@@H](OCc1cc(-c2ccc(OC(F)(F)F)cc2)no1)[C@](O)(Cn1cncn1)c1ccc(F)cc1F
